Patent publication US20260308172A1, “TRICYCLIC COMPOUNDS FOR TREATMENT OF BACTERIAL INFECTIONS” (priority 2023, published 2026)
≈ marks a conversion by molar mass, not a printed value.

Key:
[1] = test system: Escherichia coli ATCC 25922; assay: Minimal Inhibitory Concentration (MIC) assay, Escherichia coli ATCC 25922; format: cell-based; settings: ATCC25922, 20 h, read-out: MIC Escherichia coli ATCC25922
Procedure: (§1) The antibacterial activity of the compounds of the present invention was evaluated against the commonly used quality control strain Escherichia coli ATCC 25922 and the rifampin-resistant mutant strain Klebsiella pneumonia ATCC 43816. Both were originally derived from human clinical samples and are available from ATCC (American Type Culture Collection). The in vitro potency of compounds to inhibit Escherichia coli (ATCC 25922) and Klebsiella pneumonia (ATCC 43816) growth was assessed by the MIC (Minimal Inhibitory Concentration) broth dilution method. Specifically compound dilutions were prepared from 10 mM DMSO stock solutions as follows: i) serial 2-fold dilution in 20 μL DMSO were prepared in a master plate (Greiner, Cat No: 651201), ii) 180 μL sterile distilled water was added to each aliquot and iii) 10 μL diluted compounds were transferred into a new assay plate (Costar, 3599).
(§2) Vials of each test microorganisms were maintained frozen in the vapor phase of a liquid nitrogen freezer. Single-use frozen vials of the two strains Escherichia coli ATCC 25922 (KWIKSTIK, 0335K) and Klebsiella pneumonia ATCC 43816, with predetermined CFU/mL, were taken out from the freezer, thawed at room temperature, and diluted in Cation-Adjusted Mueller Hinton Broth (CAMHB) to achieve a final inoculum of 5×10^5 CFU/mL. 90 μL bacteria containing broth was dispensed to the assay plate containing the pre-dispensed compound dilutions and mixed by pipetting 5 times.
(§3) Then the assay plates were incubated for 20 hours at 35° C. in ambient air. Following incubation, the MIC (μg/mL), the lowest concentration of drug that inhibits visible growth of the microorganism was read with the help of a magnification mirror and recorded.

[2] = test system: Klebsiella pneumonia ATCC 43816; assay: Minimal Inhibitory Concentration (MIC) assay, Klebsiella pneumonia ATCC 43816; format: cell-based; settings: Klebsiella pneumoniae, ATCC43816, 20 h, read-out: MIC Klebsiella pneumoniae ATCC43816
Procedure: as §1, §2, §3

[3] = Human Microsome Stability Assay; format: in vitro ADME; settings: 1 μM compound, 0.5 mg/mL liver microsomal protein, 1 mM NADPH, pH 7.4, 37° C., 0-30 minutes; for CLint scaled at 1 µM: human, liver microsomes, read-out: Clearance of Human microsome
Procedure: The human microsomal stability assay is used for early assessment of metabolic stability of compounds of present invention in human liver microsomes. Human liver microsomes (Cat. NO.: 452117, Corning, USA) were pre-incubated with test compound for 10 minutes at 37° C. in 100 mM potassium phosphate buffer, pH 7.4. The reactions were initiated by adding NADPH regenerating system. The final incubation mixtures contained 1 μM compound, 0.5 mg/mL liver microsomal protein, 1 mM MgCl2 and 1 mM NADPH in 100 mM potassium phosphate buffer, pH 7.4. After incubation times of 0, 3, 6, 9, 15 and 30 minutes at 37° C., 300 μL of cold acetonitrile (including internal standard) was added to 100 μL incubation mixture to terminate the reaction. Following precipitation and centrifugation, the amount of compound remaining in the samples were determined by LC-MS/MS. Controls of no NADPH regenerating system at zero and 30 minutes were also prepared and analyzed.

Row | Structure (SMILES) | MIC [1] [µg/mL] | MIC [2] [µg/mL] | CLint scaled at 1 µM [3] [mL/min/kg] | Clearance of Human microsome [3] [mL/min/kg]
1 | NCCCNC(=O)[C@H]1CC[C@H](C(F)(F)c2cc(Cl)nc(N3CCN(S(=O)(=O)c4ccc5c(c4)OCC4C(N)CC(=O)N54)CC3)c2)CC1 (stereo partly drawn) [Example 045, 4-[[2-[4-[(3-Amino-1-oxo-2,3,3a,4-tetrahydropyrrolo[2,1-c][1,4]benzoxazin-7-yl)sulfonyl]piperazin-1-yl]-6-chloro-4-pyridyl]-difluoro-methyl]-N-(3-aminopropyl)cyclohexanecarboxamide] | 0.63 (≈ 0.905 µM) | 0.63 (≈ 0.905 µM) | 8.9 | –
2 | O=C1O[C@@H](CO)[C@H]2COc3cc(S(=O)(=O)N4CCN(c5cc(C(F)(F)C6C7CNCC76)cc(Cl)n5)CC4)ccc3N12 (stereo partly drawn) [Example 034, (3R,3aR)-7-[4-[4-[3-azabicyclo[3.1.0]hexan-6-yl(difluoro)methyl]-6-chloro-2-pyridyl]piperazin-1-yl]sulfonyl-3-(hydroxymethyl)-3a,4-dihydro-3H-oxazolo[4,3-c][1,4]benzoxazin-1-one] | 0.28 (≈ 0.457 µM) | 0.57 (≈ 0.931 µM) | 12.7 | –
3 | O=C1O[C@@H](CO)[C@@H]2COc3cc(S(=O)(=O)N4CCN(c5cc(C(F)(F)C6CCNCC6)cc(Cl)n5)CC4)ccc3N12 [Example 038, (3R,3aS)-7-[4-[6-chloro-4-[difluoro(4-piperidyl)methyl]-2-pyridyl]piperazin-1-yl]sulfonyl-3-(hydroxymethyl)-3a,4-dihydro-3H-oxazolo[4,3-c][1,4]benzoxazin-1-one] | 0.57 (≈ 0.928 µM) | 0.57 (≈ 0.928 µM) | 11.1 | –
4 | O=C1O[C@@H](CO)[C@H]2COc3cc(S(=O)(=O)N4CCN(c5cc(C(F)(F)C6CNC6)cc(Cl)n5)CC4)ccc3N12 [Example 035, (3R,3aR)-7-[4-[4-[azetidin-3-yl(difluoro)methyl]-6-chloro-2-pyridyl]piperazin-1-yl]sulfonyl-3-(hydroxymethyl)-3a,4-dihydro-3H-oxazolo[4,3-c][1,4]benzoxazin-1-one] | 2.2 (≈ 3.75 µM) | 2.19 (≈ 3.74 µM) | 10.9 | –
5 | NCC(=O)NCC(=O)N1CCC(C(F)(F)c2cc(Cl)nc(N3CCN(S(=O)(=O)c4ccc5c(c4)OC[C@@H]4[C@H](CO)OC(=O)N54)CC3)c2)CC1 [Example 057, N-[2-[4-[[2-[4-[[(3R,3aR)-3-(hydroxymethyl)-1-oxo-3a,4-dihydro-3H-oxazolo[4,3-c][1,4]benzoxazin-7-yl]sulfonyl]piperazin-1-yl]-6-chloro-4-pyridyl]-difluoro-methyl]-1-piperidyl]-2-oxo-ethyl]-2-amino-acetamide] | 0.66 (≈ 0.906 µM) | 0.66 (≈ 0.906 µM) | 11.3 | –
6 | O=C1O[C@@H](CO)[C@H]2COc3cc(S(=O)(=O)N4CCN(c5cc(C(F)(F)C6CC7(CNC7)C6)cc(Cl)n5)CC4)ccc3N12 [Example 039, (3R,3aR)-7-[4-[4-[2-azaspiro[3.3]heptan-6-yl(difluoro)methyl]-6-chloro-2-pyridyl]piperazin-1-yl]sulfonyl-3-(hydroxymethyl)-3a,4-dihydro-3H-oxazolo[4,3-c][1,4]benzoxazin-1-one] | 0.87 (≈ 1.39 µM) | 1.16 (≈ 1.85 µM) | – | 6.2
7 | NCCCNC(=O)[C@H]1CC[C@H](C(F)(F)c2cc(Cl)nc(N3CCN(S(=O)(=O)c4ccc5c(c4)OC[C@@H]4[C@H](CN)OC(=O)N54)CC3)c2)CC1 (stereo in doubt) [Example 047, 4-[[2-[4-[[cis-3-(aminomethyl)-1-oxo-3a,4-dihydro-3H-oxazolo[4,3-c][1,4]benzoxazin-7-yl]sulfonyl]piperazin-1-yl]-6-chloro-4-pyridyl]-difluoro-methyl]-N-(3-aminopropyl)cyclohexanecarboxamide] | 0.58 (≈ 0.814 µM) | 0.59 (≈ 0.828 µM) | 7 | –
8 | NCCN1CCC(C(F)(F)c2cc(Cl)nc(N3CCN(S(=O)(=O)c4ccc5c(c4)OC[C@@H]4[C@H](CO)OC(=O)N54)CC3)c2)CC1 [Example 055, (3R,3aR)-7-[4-[4-[[1-(2-aminoethyl)-4-piperidyl]-difluoro-methyl]-6-chloro-2-pyridyl]piperazin-1-yl]sulfonyl-3-(hydroxymethyl)-3a,4-dihydro-3H-oxazolo[4,3-c][1,4]benzoxazin-1-one] | 0.3 (≈ 0.457 µM) | 0.3 (≈ 0.457 µM) | 7.8 | –
9 | NCCCNC(=O)[C@H]1CC[C@H](C(F)(F)c2cc(Cl)nc(N3CCN(S(=O)(=O)c4ccc5c(c4)OC[C@@H]4[C@H](CO)OC(=O)N54)CC3)c2)CC1 [Example 046, 4-[[2-[4-[[(3R,3aR)-3-(hydroxymethyl)-1-oxo-3a,4-dihydro-3H-oxazolo[4,3-c][1,4]benzoxazin-7-yl]sulfonyl]piperazin-1-yl]-6-chloro-4-pyridyl]-difluoro-methyl]-N-(3-aminopropyl)cyclohexanecarboxamide] | 0.32 (≈ 0.449 µM) | 0.32 (≈ 0.449 µM) | – | 6.2
10 | C[N+]1(CCN)CCC[C@H]1C(=O)N[C@H]1CC[C@H](C(F)(F)c2cc(Cl)nc(N3CCN(S(=O)(=O)c4ccc5c(c4)OC[C@@H]4[C@H](CO)OC(=O)N54)CC3)c2)CC1 (stereo in doubt) [Example 062, (2S)-1-(2-aminoethyl)-N-[4-[[2-chloro-6-[4-[[(3R,3aR)-3-(hydroxymethyl)-1-oxo-3a,4-dihydro-3H-oxazolo[4,3-c][1,4]benzoxazin-7-yl]sulfonyl]piperazin-1-yl]-4-pyridyl]-difluoro-methyl]cyclohexyl]-1-methyl-pyrrolidin-1-ium-2-carboxamide;chloride] | 0.67 | 0.67 | – | 6.2
11 | NCCCN(CCCN)C(=O)[C@H]1CC[C@H](C(F)(F)c2cc(Cl)nc(N3CCN(S(=O)(=O)c4ccc5c(c4)OC[C@H]4[C@H](CO)OC(=O)N54)CC3)c2)CC1 [Example 048, 4-[[2-[4-[[(3R,3aS)-3-(hydroxymethyl)-1-oxo-3a,4-dihydro-3H-oxazolo[4,3-c][1,4]benzoxazin-7-yl]sulfonyl]piperazin-1-yl]-6-chloro-4-pyridyl]-difluoro-methyl]-N,N-bis(3-aminopropyl)cyclohexanecarboxamide] | 0.64 (≈ 0.831 µM) | 0.64 (≈ 0.831 µM) | 12.9 | –
12 | NCCCNC(=O)/C=C/C(F)(F)c1cc(Cl)nc(N2CCN(S(=O)(=O)c3ccc4c(c3)OC[C@@H]3[C@H](CO)OC(=O)N43)CC2)c1 [Example 044, (E)-4-[2-[4-[[(3R,3aR)-3-(hydroxymethyl)-1-oxo-3a,4-dihydro-3H-oxazolo[4,3-c][1,4]benzoxazin-7-yl]sulfonyl]piperazin-1-yl]-6-chloro-4-pyridyl]-N-(3-aminopropyl)-4,4-difluoro-but-2-enamide] | 2.4 (≈ 3.65 µM) | 2.41 (≈ 3.67 µM) | 7 | –
13 | C[N@+]1(CC(N)=O)CCC[C@H]1C(=O)N[C@H]1CC[C@H](C(F)(F)c2cc(Cl)nc(N3CCN(S(=O)(=O)c4ccc5c(c4)OC[C@@H]4[C@H](CN)OC(=O)N54)CC3)c2)CC1 [Example 061, (1R,2S)—N-[4-[[2-[4-[[(3S,3aR)-3-(aminomethyl)-1-oxo-3a,4-dihydro-3H-oxazolo[4,3-c][1,4]benzoxazin-7-yl]sulfonyl]piperazin-1-yl]-6-chloro-4-pyridyl]-difluoro-methyl]cyclohexyl]-1-(2-amino-2-oxo-ethyl)-1-methyl-pyrrolidin-1-ium-2-carboxamide;chloride] | 0.68 | 0.34 | – | 6.2
14 | NC[C@H]1OC(=O)N2c3ccc(S(=O)(=O)N4CCN(c5cc(C(F)(F)F)cc(Cl)n5)CC4)cc3OC[C@@H]12 (relative stereo) [Example 007] | 0.46 (≈ 0.84 µM) | 0.91 (≈ 1.66 µM) | 9.6 | –
